# Source: US7767803B2, “Stabilized aptamers to PSMA and their use as prostate cancer therapeutics” (Archemix Corp., priority 2002, dated 2010)
# Legend:
# [1] = system: metastatic, androgen independent prostate cancer; details: docetaxel in combination with prednisone, given every three weeks; control mitoxantrone and prednisone; cited from earlier work
# PSMA NAALADase activity = PSMA NAALADase activity (Homo sapiens, UniProt Q04609); experiment: NAALADase inhibition assay; type: biochemical; details: relative to parent aptamer
# Experimental: These point mutant constructs were assessed for activity in terms of inhibition of PSMA NAALADase activity. The NAALADase assay was performed in 96 well format. PSMA aptamers were serially diluted in 1× reaction buffer (40 mM Tris-HCl, pH 7.4, 0.1 mM ZnSO4, 0.1 mg/mL BSA) in a standard 96 well plate to be tested at a final concentration range from 30 pM to 1 μM. The enzyme was prepared by diluting 30 μL of 100 nM PSMA into 8 mL of reaction buffer, and kept cool on ice. The substrate was prepared by adding 19 μl of NAAG [Glutamate-3,4-^3H], 50.8 Ci/mmol, 19.7 μM (Perkin-Elmer, Wellesley, Mass., NET1082) into 2.2 mL of reaction buffer.
# Following preparation of all reagents, 4 μl of each serially diluted aptamer was added to a separate 96 well plate (the reaction plate). 76 μl of diluted enzyme was added to the corresponding wells containing aptamer. 80 μl of reaction buffer was added to one column of wells to serve as a background control. The diluted substrate and reaction plate were then moved to a room at 37° C. and allowed to equilibrate for 10 minutes. […]
# To separate the cleavage products, […] and Glutamate, from the substrate, an AG 1-×8, 200-400 mesh, formate resin (BioRad, Hercules, Calif., # 140-1454) was used. […] The plate was sealed and read using a Packard Topcount Microplate Scintillation Counter. […]
# LNCaP cells (PSMA+) = experiment: LNCaP FACS assay with fluorescein-labeled aptamers; type: cell-based
# Source text: The parent A9 aptamer sequence (SEQ ID NO 168) is predicted by the MFOLD algorithm implemented in the RNAStructure program v. 4.11 to fold into a partially mismatched hairpin that encompasses almost the entire molecule. A series of truncated constructs were designed, in which self-pairing nucleotides from the 5′- and 3′-ends were simultaneously removed, chemically synthesized using conventional solid-phase phosphoramidite-based synthesis, and tested. In the design of some of the truncated A9 aptamers, see e.g. ARC591, additional bases were added to the 3′ and 5′ ends of the truncate, where the bases added to the 5′ end were capable of forming Watson-Crick base pairs with those added to the 3′ end thereby increasing the length of stem structure. Truncated aptamers were 5′-labeled with fluorescein and tested for binding in to LNCaP cells (PSMA+) in the FACS assay described below. PC-3 cells (PSMA−) were used as a control cell line. The sequences of the truncated A9 aptamers designed are listed below in Table 6 below.
# To accomplish 5′-fluorescein labeling, aptamers were synthesized with a 5′-amine and then modified post-solid phase synthesis. The required aptamer was dissolved to a concentration of ˜10-50 mg/mL in 25 mM phosphate buffer, pH 7.4. The small molecule, NHS ester of fluorescein, was dissolved to a concentration of 10 mg/mL in DMSO. 1.5 Molar equivalents were added to the aptamer and the solution vortexed for ˜15 seconds. The reaction was allowed to proceed in the dark at room temperature for 1 hour and then a 5 μL aliquot was withdrawn, diluted with water and analyzed by HPLC. Additional equivalents of the small molecule were added until the reaction was complete by HPLC. Excess small molecules were removed by gel filtration.
# To prepare aptamers for the FACS assay, PSMA aptamers were serially diluted (0-1 uM) in FACS buffer (1×DPBS w/Ca^++/Mg^++ (Gibco, Carlsbad, Calif.) supplemented with 10 mg/mL salmon sperm DNA & 0.2% Na Azide), in a V-bottom 96 well plate, at the concentrations to be tested. LNCaP and PC-3 cells (ATCC, Manassas, Va.) were harvested with trypsin, and 200,000 cells/well were counted, washed once with 1×DPBS (with Ca^++ and Mg^++) and resuspended in 200 μl of FACS Buffer. The 200 μl of cells in FACS buffer were added to individual wells of a new 96 well plate, pelleted by centrifugation (1300 rpm for 5 minutes), and resuspended in 100 μl of the appropriate concentration of diluted aptamer. FACS buffer, c-PSMA antibody (3C6) (Northwest Biotherapeutics, Bothell, Wash., Cat #: 60-5002) and an irrelevant fluorescein isothiocyanate (“FITC”) mouse IgG1 isotype control antibody (BD Pharmingen, San Diego, Calif., Cat#: 554679) were used as controls. The wells of aptamer/cell mixture were incubated at room temperature for 20-30 minutes. […]
# PC-3 cells (PSMA−) = experiment: FACS assay on control cell line; type: cell-based
# Source text: The parent A9 aptamer sequence (SEQ ID NO 168) is predicted by the MFOLD algorithm implemented in the RNAStructure program v. 4.11 to fold into a partially mismatched hairpin that encompasses almost the entire molecule. A series of truncated constructs were designed, in which self-pairing nucleotides from the 5′- and 3′-ends were simultaneously removed, chemically synthesized using conventional solid-phase phosphoramidite-based synthesis, and tested. […]
# To prepare aptamers for the FACS assay, PSMA aptamers were serially diluted (0-1 uM) in FACS buffer (1×DPBS w/Ca^++/Mg^++ (Gibco, Carlsbad, Calif.) supplemented with 10 mg/mL salmon sperm DNA & 0.2% Na Azide), in a V-bottom 96 well plate, at the concentrations to be tested. LNCaP and PC-3 cells (ATCC, Manassas, Va.) were harvested with trypsin, and 200,000 cells/well were counted, washed once with 1×DPBS (with Ca^++ and Mg^++) and resuspended in 200 μl of FACS Buffer. […]
# Cell samples were analyzed on a FACS Scan machine (Becton Dickinson, San Jose, Calif.) under the following parameters: FSC/SSC, FL-1/FSC, FL-3/FSC. The unstained and/or isotype controls were used to establish gating parameters, and the data was analyzed using Cell Quest Pro software version 5.1.1 (Becton Dickinson Immunocytometry Systems, San Jose, Calif.).
# Sequence of PSMA NAALADase activity (Q04609 with tags, fused parts or gaps limits assumed): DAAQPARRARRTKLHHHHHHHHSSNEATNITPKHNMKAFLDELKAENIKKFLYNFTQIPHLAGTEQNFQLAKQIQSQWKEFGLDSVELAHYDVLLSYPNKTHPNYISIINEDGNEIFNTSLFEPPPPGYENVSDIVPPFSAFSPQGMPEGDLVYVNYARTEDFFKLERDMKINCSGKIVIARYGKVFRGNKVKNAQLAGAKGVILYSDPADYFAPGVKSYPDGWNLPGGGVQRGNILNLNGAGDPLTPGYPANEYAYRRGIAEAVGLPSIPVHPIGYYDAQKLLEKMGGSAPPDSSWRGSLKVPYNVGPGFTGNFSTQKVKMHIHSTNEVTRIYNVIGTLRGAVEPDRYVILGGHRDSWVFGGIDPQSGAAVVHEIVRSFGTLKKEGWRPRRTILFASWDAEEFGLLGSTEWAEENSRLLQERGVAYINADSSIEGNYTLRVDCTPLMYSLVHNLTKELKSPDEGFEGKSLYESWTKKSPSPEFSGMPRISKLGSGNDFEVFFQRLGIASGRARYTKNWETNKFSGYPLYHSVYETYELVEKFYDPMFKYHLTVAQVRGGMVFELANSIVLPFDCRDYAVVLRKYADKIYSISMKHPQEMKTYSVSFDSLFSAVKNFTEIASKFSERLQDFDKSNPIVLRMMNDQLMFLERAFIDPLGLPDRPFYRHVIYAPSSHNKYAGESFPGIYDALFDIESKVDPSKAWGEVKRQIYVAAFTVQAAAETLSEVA
Molecule,survival advantage over the control group [1],NAALADase inhibition activity (in words) (PSMA NAALADase activity),binding to LNCaP (PSMA+) cells by FACS (in words) (LNCaP cells (PSMA+)),binding to PC-3 (PSMA−) cells by FACS (in words) (PC-3 cells (PSMA−))
"CC(=O)O[C@@]12CO[C@@H]1C[C@H](O)[C@@]1(C)C(=O)[C@H](O)C3=C(C)[C@@H](OC(=O)[C@H](O)[C@@H](NC(=O)OC(C)(C)C)c4ccccc4)C[C@@](O)([C@@H](OC(=O)c4ccccc4)[C@H]21)C3(C)C [Taxotere, docetaxel]",approximately 2.5 months,–,–,–
"GGAGGACCGAAAAAGACCUGACUUCUAUACUAAGUCUACGUUCCUCCA (2'-fluoro pyrimidines, further chemistry not given here) [ARC591, 48-nt minimer of A9, 2′-OH purines, 2′-fluoro pyrimidines]",–,retained full functional activity,retained full functional activity,–
"GGGAGGACGAUGCGGACCGAAAAAGACCUGAfCfUfUfCfUAfUAfCfUAAGfUfCfUAf CGfUfUfCfCfCAGAfCGAfCfUfCGfCfCfCGA (nucleic acid, listed as RNA, chemistry not fully specified, existing PSMA specific aptamer of rRfY composition, described in U.S. Ser. No. 09/978,969) GGGAGGACGAUGCGGACCGAAAAAGACCUGACUUCUAUACUAAGUCUACGUUCCCAGACGACUCGCCCGA",–,–,binding to LNCaP (PSMA+) cells,not to PC-3 (PSMA−) cells
